Assay results reported in article PMC9785777, “Antidiabetic Potential of Novel 1,3,5-Trisubstituted-2-Thioxoimidazloidin-4-One Analogues: Insights into α-Glucosidase, α-Amylase, and Antioxidant Activities” (Pharmaceuticals, 2022).

Key:
[1] = DPPH free radical scavenging assay; conditions: for DPPH free radical scavenging IC50: n = 4
From the text: The antioxidant capability of compounds 5a and 7a was estimated utilizing the DPPH (2,2-diphenyl-1- picrylhydrazyl) scavenging assay to assess the free radical scavenger activity. DPPH is a stable free radical substrate with a purple color which upon reaction with an antioxidant compound, converts into 1,1-diphenyl-2-picryl hydrazine, a […] compound. The DPPH assay is widely applied for the investigation of superoxide radical scavenging activity. In this regard, compounds 5a and 7a were incubated at different concentrations (3.12, 6.25, 12.5, 25, 50, 100, and 200 µg/mL) with DPPH substrate and the absorption was assessed by ELISA at 510 nm. In our investigations, Trolox, a water-soluble analogue of vitamin E, was applied as a standard antioxidant reference drug. […] Further, Qamar et al. synthesized and evaluated the antioxidant activity of some novel N3-substituted-2-thiohydantoins.
According to Valko et al., the ELISA approach was used to analyze the free-radical DPPH scavenging activity of compounds (5a and 7a) at different concentrations (3.12, 6.25, 12.5, 25, 50, 100, and 200 µg/mL). The DPPH assay assesses the hydrogen-donating activity and thus provides an evaluation of the antioxidant activity via estimating the DPPH free-radical scavenging activity. The color intensity of the reaction mixture was measured after a purple-colored stable free radical (DPPH) was reduced into the yellow-colored diphenylpicryl hydrazinem. Briefly, 200 µL of different concentrations of compounds 5a and 7a were mixed with 50 µL of DPPH (0.659 mM) solution, and the mixture was incubated at 25 °C for 20 min. The absorbance of the reaction mixture was estimated after incubation at 510 nm. In our investigations, trolox was employed as standard reference drug. A control reaction was performed, and the inhibitory efficiency of DPPH radical-scavenging activity was determined using the equation below: % Inhibition = (A0 − A1)/A0 × 100 (1) where A0 is absorbance of […] and A1 is the absorbance of the compound.

[2] = tested on: human lung fibroblast WI-38 cell line; test: MTT cytotoxicity assay against WI-38 cells; format: cell-based; conditions: MTT, 48 h
Protocol: Based on the promising dual inhibitory activity of this class of compounds, we next evaluated the cytotoxicity of compounds 5a and 7a against human lung fibroblast cell line WI-38 in order to gain insights into the toxicity of this class of compounds utilizing the MTT assay. In this regard, lung fibroblast cells were cultured and treated with compounds 5a and 7a for 48 h at different concentrations (1000, 250, 63, 16, and 4 µg/mL). After the cells were washed, they were treated with MTT solution and the absorption was assessed using an ELISA reader at 570 nm. As a pharmacological reference drug, Celecoxib, a well-known anti-inflammatory agent, was utilized.
The cytotoxicity of compounds 5a and 7a was assessed toward the human lung fibroblast WI-38 cell line (Sigma-Aldrich, St. Louis, MO, USA, product number 90020107) using MTT assay. The MTT test assay was performed in accordance with the previously stated procedure. MTT (3-(4,5-dimethylthiazol-2-yl)-2,5-diphenyl tetrazolium bromide; Sigma catalog no. M2128) was dissolved in PBS at 5 mg/mL and processed to eliminate the insoluble residues. Briefly, cells (10^5 cells/well) were treated for 48 h at 37 °C with compounds 5a and 7a at varied doses (1000, 250, 63, 16, and 4 µg/mL, DMSO stock solutions) in a 5% CO2 atmosphere. In our assessment, celecoxib, an inhibitor of cyclooxygenase 2, was employed as a standard reference drug. Following cell washing, MTT solution (180 µL/well) was applied to the cells and incubated at 37 °C for 4 h with shaking, and the absorbance was measured using an ELISA reader at 570 nm.

Row | SMILES | %RSA (DPPH radical scavenging activity) ([1]; 3.12 µg/mL) [%] | %RSA (DPPH radical scavenging activity) ([1]; 6.25 µg/mL) [%] | %RSA (DPPH radical scavenging activity) ([1]; 12.5 µg/mL) [%] | %RSA (DPPH radical scavenging activity) ([1]; 25 µg/mL) [%] | %RSA (DPPH radical scavenging activity) ([1]; 50 µg/mL) [%] | %RSA (DPPH radical scavenging activity) ([1]; 100 µg/mL) [%] | %RSA (DPPH radical scavenging activity) ([1]; 200 µg/mL) [%] | DPPH free radical scavenging IC50 [1] [mg/L] | WI-38 cytotoxicity IC50 [2] [mg/L]
1 | COC(=O)CCN1C(=S)N(N=C(C)c2ccccc2O)C(=O)C1=Cc1ccccc1O [Compound 5a, Methyl [5-(2-hydroxybenzylidene)-4-oxo-3-(2-hydroxyphenylethylidene)amino-2-thioxoimidazolidin-1-yl] propionate] | 12.8385 | 25.9268 | 34.2 | 49.2589 | 65.3256 | 84.0278 | 90.9673 | 51.75 | 88.538
2 | COC(=O)CCN1C(=S)N(N=C(C)c2ccccc2O)C(=O)C1=Cc1ccccc1OC(C)=O [Compound 7a, Methyl [5-(2-acetoxybenzylidene)-4-oxo-3-(2-hydroxyphenylethylidene)amino-2-thioxoimidazolidin-1-yl] propionate] | 9.7382 | 18.9636 | 30.2839 | 45.4635 | 62.2992 | 81.6087 | 80.732 | 65.5 | –
